Laboratory results reported in PubChem BioAssay (NCI).
“And” between values parts separate entries of the source, which are not always exact repeats. Equal values may be shown once.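 Test compounds were applied to cells in 96-well plates for 48 hours at 5 doses. GI50: concentration for 50% inhibition of growth. At the TGI there is no net growth.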

Assays:
Test in all cases: inhibition of tumour cell growth, NCI panel, 48 h
U251 CNS = system: U251 CNS
OVCAR-4 ovarian = system: OVCAR-4 ovarian
UO-31 renal = system: UO-31 renal
RXF 393 renal = system: RXF 393 renal
HT29 colon = system: HT29 colon
NCI-H460 lung = system: NCI-H460 lung
SF-268 CNS = system: SF-268 CNS
786-0 renal = system: 786-0 renal
NCI-H226 lung = system: NCI-H226 lung

| SMILES | GI50 (U251 CNS) | TGI (U251 CNS) [µM] | GI50 (OVCAR-4 ovarian) | TGI (OVCAR-4 ovarian) | GI50 (UO-31 renal) | TGI (UO-31 renal) | GI50 (RXF 393 renal) | TGI (RXF 393 renal) | GI50 (HT29 colon) | TGI (HT29 colon) | GI50 (NCI-H460 lung) | TGI (NCI-H460 lung) | GI50 (SF-268 CNS) [µM] | TGI (SF-268 CNS) [µM] | GI50 (786-0 renal) | TGI (786-0 renal) [µM] | GI50 (NCI-H226 lung) [µM] | TGI (NCI-H226 lung) [µM] |
| --- | --- | --- | --- | --- | --- | --- | --- | --- | --- | --- | --- | --- | --- | --- | --- | --- | --- | --- |
| CO[C@H](C(=O)[C@@H](O)[C@@H](C)O)[C@@H]1Cc2cc3cc(O[C@H]4C[C@@H](O[C@H]5C[C@@H](O)[C@H](O)C(C)O5)[C@H](O)C(C)O4)c(C)c(O)c3c(O)c2C(=O)[C@H]1O[C@H]1C[C@@H](O[C@H]2C[C@@H](O[C@H]3C[C@](C)(O)C(=O)C(C)O3)[C@@H](O)C(C)O2)[C@H](O)C(C)O1 (stereo partly specified) | 0.031 µM | > 33.2 | 0.124 µM | 7.04 µM | 0.159 µM | 1.6 µM | 0.0515 µM | 0.119 µM | 0.0852 µM | 0.866 µM | 0.0323 µM | > 33.2 µM | 0.065 | > 33.2 | 0.101 µM | 17.1 | 0.0457 | 0.3 |
| CCOC(=O)CN1C(=O)c2cccc3cc([N+](=O)[O-])cc(c23)C1=O | – | 20.3 | – | 3.27 µM | – | 27 µM | – | 3.89 µM | – | 25.4 µM | – | 17.3 µM | – | 11.1 | – | 26.3 | – | 23 |
| O=C(COc1ccc(Br)cc1Br)N1N=C(c2ccc([N+](=O)[O-])o2)CC1(O)c1ccccc1 (stereo unspecified) | – | 22.9 | – | > 100 µM | – | 21.3 µM | – | 15.7 µM | – | 48 µM | – | 20.4 µM | – | 36 | – | 44.1 | – | 36.4 |
| COc1cc(CNc2cnc3cc(N)cc(N)c3n2)cc(OC)c1 | – | – | – | – | 38.2 µM | > 100 µM | – | – | – | – | 54.4 µM | > 100 µM | 15.8 | 37.7 | 15.4 µM | 30 | 17.4 | 55.3 |
| Cc1ccc(C(=O)/C(=C/c2ccc([N+](=O)[O-])cc2)SCc2ccc(Cl)cc2)cc1 | 1.11 µM | 2.4 | 1.87 µM | 6.37 µM | 1.2 µM | 2.66 µM | 2.38 µM | 7.03 µM | 0.676 µM | 2.86 µM | 2.58 µM | 12 µM | 2.44 | 15.8 | 1.66 µM | 3.58 | > 100 | > 100 |
| Cc1coc2c1CC1(C)C(CCC(O)C1C)C2 (stereo unspecified) | – | > 100 | – | > 100 µM | – | – | – | > 100 µM | – | > 100 µM | – | > 100 µM | – | > 100 | – | > 100 | – | > 100 |
| CCOC(=O)[C@]1(OC(C)=O)C[C@H](OC(C)=O)[C@@H](C(F)COP(=O)(OCc2ccccc2)OCc2ccccc2)O1 (stereo partly specified) | 35.9 µM and > 100 µM | > 100 | 18 µM and > 100 µM | 39 µM and > 100 µM | 21.6 µM and > 100 µM | 43.5 µM and > 100 µM | 24.5 µM and > 100 µM | 68.2 µM and > 100 µM | 28.2 µM and > 100 µM | 83 µM and > 100 µM | 18.4 µM and > 100 µM | 39.9 µM and > 100 µM | – | > 100 | 39 µM and > 100 µM | > 100 | – | > 100 |
| OCc1ccc(N2CCC2c2ccc(F)cc2)cc1Cl (stereo unspecified) | 3.92 µM | > 46.5 | 0.925 µM | > 59.3 µM | 20.8 µM | 76.3 µM | 11.6 µM | 30.4 µM | 5.13 µM | 33 µM | 0.511 µM | 12.4 µM | 35 | > 100 | 22.6 µM | > 61.5 | 0.0912 | 0.322 |
